Laboratory results as given in patent publication US9359281B2, “Enantiomers of 2-hydroxy derivatives of fatty acids” (UNIVERSITAT DE LES ILLES BALEARS, priority 2011, dated 2016).

Key:
U118 cells [1] = assay: Levels of SM in cell membranes, U118; type: cell-based, human; set-up: SM levels in the cell membrane (activation of enzyme EC 2.7.8.27): dose or concentration left out as unconfirmed; conditions: for SM levels in the cell membrane (activation of enzyme EC 2.7.8.27): U118, 24 hours
U118 cells [2] = assay: Cell growth inhibition, U118; type: cell-based, human; set-up: key to Effect (anti-proliferation effect): +: inhibition of cell growth; −: absence of effect; conditions: for IC50: U118, sodium salt form
Text: (§1) At this respect, concentrations which inhibit growth of tumour cells (IC50) are lower for the enantiomer S ([−]) in all studied tumour lines (Table 5). […] In all of the cases, the molecules employed were in the form of sodium salt.

U87 cells = assay: Cell growth inhibition, U87; type: cell-based, human; set-up: key to Effect (anti-proliferation effect): +: inhibition of cell growth; −: absence of effect; conditions: for IC50: U87, sodium salt form
Text: as §1

SH-SY5Y cells = assay: Cell growth inhibition, SH-SY5Y; type: cell-based, human; set-up: key to Effect (anti-proliferation effect): +: inhibition of cell growth; −: absence of effect; conditions: for IC50: SH-SY5Y, sodium salt form
Text: as §1

A549 cells = assay: Cell growth inhibition, A549; type: cell-based, human; set-up: key to Effect (anti-proliferation effect): +: inhibition of cell growth; −: absence of effect
Text: as §1

Jurkat cells = assay: Cell growth inhibition, Jurkat; type: cell-based, human; set-up: key to Effect (anti-proliferation effect): +: inhibition of cell growth; −: absence of effect; conditions: for IC50: sodium salt form
Text: as §1

U937 cells = assay: Cell growth inhibition, U937; type: cell-based, human; set-up: key to Effect (anti-proliferation effect): +: inhibition of cell growth; −: absence of effect; conditions: for IC50: U937, sodium salt form
Text: as §1

PC3 cells = assay: Cell growth inhibition, PC3; type: cell-based, human; set-up: key to Effect (anti-proliferation effect): +: inhibition of cell growth; −: absence of effect; conditions: for IC50: PC3, sodium salt form
Text: as §1

BXPC3 cells = assay: Cell growth inhibition, BXPC3; type: cell-based, human; set-up: key to Effect (anti-proliferation effect): +: inhibition of cell growth; −: absence of effect; conditions: for IC50: BXPC3, sodium salt form
Text: as §1

HeLa cells = assay: Cell growth inhibition, HeLa; type: cell-based, human; set-up: key to Effect (anti-proliferation effect): +: inhibition of cell growth; −: absence of effect; conditions: for IC50: sodium salt form
Text: as §1

HT29 cells = assay: Cell growth inhibition, HT29; type: cell-based, human; set-up: key to Effect (anti-proliferation effect): +: inhibition of cell growth; −: absence of effect; conditions: for IC50: HT29, sodium salt form
Text: as §1

IMR90 cells = assay: Cell growth inhibition, IMR90; type: cell-based, human; set-up: key to Effect (anti-proliferation effect): +: inhibition of cell growth; −: absence of effect; conditions: for IC50: IMR90 non tumor fibroblast, sodium salt form
Text: as §1

MRC-5 cells = assay: Cell growth inhibition, MRC-5; type: cell-based, human; set-up: key to Effect (anti-proliferation effect): +: inhibition of cell growth; −: absence of effect; conditions: for IC50: MRC-5 non tumor fibroblast, sodium salt form
Text: as §1

A375 cells = assay: Cell growth inhibition, A375; type: cell-based, human; conditions: A375, sodium salt form
Text: as §1

[3] = test system: human glioma (SF767) cells; assay: Volume of human glioma (SF767) tumours in immuno-depressed mice; type: in vivo; conditions: for Effect: variation in the size of the tumour compared with untreated animals: 15 days; for decrease in the volume of the tumour: 200 mg/kg, 15 days orally
Text: This example recounts the study carried out on immuno-depressed mice infected with human glioma (SF767) cells and treated for 15 days (orally) with the indicated dose (Table 3).

[4] = test system: human lung cancer cells (A549); assay: Volume of tumours derived from human lung cancer cells (A549) in mice; type: in vivo; conditions: 600 mg/kg·day, 15 days, orally
Procedure: A. Effect on the volume of tumours derived from human lung cancer cells (A549): immuno-depressed mice were infected with human lung cancer cells and 7 days later (when the tumours were observable), treatments started with vehicle (control), 2OHOA racemic (+/−), and optic isomers [−]2OHOA and [+]2OHOA (600 mg/kg·day, 15 days, orally). The bars correspond to values of an average±EEM (n=3-5) of the increase in volume (mm^3) of the tumours (n=6).
On the other hand, we investigated the antitumoral activity of these compounds in different types of human cancer (see Tables 2, 4 and 5). […] Furthermore, the activity of these enantiomers was proven against a vast variety of human cancers of different nature, since it can be stated that enantiomers [−] of 2-hydroxylated fatty acids have a high potency in the treatment of any type of cancer.

Body weight of SHR rats = type: in vivo; conditions: 600 mg/kg·day, 5 days, orally
Procedure: C. Effect on body weight: SHR rats were treated with 2OHOA racemic (+/−) and its optic isomers [−]2OHOA and [+]2OHOA (600 mg/kg·day, 5 days, orally). […] Values of average±EEM body weight (abscises axis, n=6) are shown.
(§2) What is more, we studied the effect of the isomers above on arterial pressure, body weight, and the level of cholesterol, triglycerides and glycemia (glucose in plasma) in SHR rats SHR (FIGS. 8B, 8C and 8D and 8E). […] Similarly, during 1 and 5 days of treatment, rats treated with the racemic loosed 11 gram of weight (approximately a 3% of their body weight), whereas animals of the group treated with enantiomer [−]2OHOA loosed 21 grams and animals of the group treated with enantiomer [+]2OHOA only loosed 7 grams of weight. On the other hand, a higher effect of enantiomer [+]2OHOA in the reduction of triglyceride (TG) and total cholesterol (CHOt) levels was observed (FIG. 8D) At this respect, plasmatic basal levels of TG in SHR rats are of 108 mg/dl and were reduced to 56 mg/dl after 2 weeks treatment […]. On the other hand, treatment with enantiomer [+]2OHOA inducted a reduction of plasmatic TG levels to 47 mg/dl, whereas enantiomer [−]2OHOA only produced a modest reduction to 81 mg/dl. In parallel, levels of CHOt were reduced from 73 mg/dl to 43 mg/dl (racemic), 36 mg/dl (enantiomer [+]2OHOA) and 59 mg/dl (enantiomer [−]2OHOA), respectively.

[5] = Plasmatic glucose levels in SHR rats; type: in vivo; conditions: 600 mg/kg, 12 h, 15 days, by mouth
Procedure: E. Effects on […] (plasmatic glucose levels): SHR rats were treated with vehicle (control), racemic 2OHOA and their optical isomers [−] 2OHOA and [+]2OHOA (600 mg/kg, 12 h, 15 days, by mouth). The racemic compound and the [−]
as §2

| Structure (SMILES) | SM levels in the cell membrane (activation of enzyme EC 2.7.8.27) (U118 cells [1]) | IC50 (U118 cells [2]) | IC50 (U87 cells) | IC50 (SH-SY5Y cells) | IC50 (A549 cells; A549, sodium salt form) | IC50 (Jurkat cells) | IC50 (U937 cells) | IC50 (PC3 cells) | IC50 (BXPC3 cells) | IC50 (HeLa cells) | IC50 (HT29 cells) | Effect: variation in the size of the tumour compared with untreated animals ([3]; 50 mg/kg orally) | Effect: variation in the size of the tumour compared with untreated animals ([3]; 75 mg/kg orally) | Effect: variation in the size of the tumour compared with untreated animals ([3]; 100 mg/kg orally) | Effect: variation in the size of the tumour compared with untreated animals ([3]; 150 mg/kg orally) | Effect: variation in the size of the tumour compared with untreated animals ([3]; 200 mg/kg orally) | Effect: variation in the size of the tumour compared with untreated animals ([3]; 400 mg/kg orally) | Effect: variation in the size of the tumour compared with untreated animals ([3]; 600 mg/kg orally) | volume of tumours derived from A549 cells [4] | plasma glucose levels (glycemia) [5] | other results |
| --- | --- | --- | --- | --- | --- | --- | --- | --- | --- | --- | --- | --- | --- | --- | --- | --- | --- | --- | --- | --- | --- |
| CCCCCCCC/C=C\CCCCCCC(O)C(=O)O (centres unmarked) [[+]2OHOA] [[+]HOOC—HOCH—(CH2)6—(CH═CH—CH2)1—(CH2)6—CH3] | decrease in the level of SM in membranes | 212 µM | 148 µM | 193 µM | 133 µM | 97.2 µM | 214 µM | 233 µM | 154 µM | 206 µM | 342 µM | −2% | +7% | −3% | +1% | −4% | −2% | +3% | no significant changes in the volume of tumours | reduction without statistical significance | IC50 (A549 cells; A549, sodium salt form, listed as [+]2OH18:1): 133 ± 9.8 µM; IC50 (IMR90 cells): > 5000 µM; IC50 (MRC-5 cells): > 5000 µM; IC50 (A375 cells): 407 µM; activity on tumour volume after 15 days of treatment ([3]; indicated doses (50-600 mg/kg), orally): showed no activity; loss of body weight (Body weight of SHR rats; 600 mg/kg): 7 gram |
| CCCCCCCC/C=C\CCCCCCC(O)C(=O)O (centres unmarked) [[−]2OHOA] [[−] HOOC—HOCH—(CH2)6—(CH═CH—CH2)1—(CH2)6—CH3] | even greater increases in SM levels | 97.8 µM | 53.5 µM | 64.4 µM | 52.6 µM | 35.7 µM | 136 µM | 87 µM | 61.8 µM | 74.5 µM | 159 µM | −35% | −54% | −65% | −78% | −89% | −91% | −86% | significant reductions compared with all the other treatments | significant reductions | % SM after treatment (U118 cells [1]; U118, 200 μM [−]2OHOA): 28%; Effect (anti-proliferation effect) (U118 cells [2]; U118): +; Effect (anti-proliferation effect) (U87 cells; U87): +; Effect (anti-proliferation effect) (SH-SY5Y cells; SH-SYSY): +; Effect (anti-proliferation effect) (A549 cells; A549): +; IC50 (A549 cells; A549, sodium salt form, listed as [−]2OH18:1): 52.6 ± 9.5 µM; Effect (anti-proliferation effect) (Jurkat cells): +; Effect (anti-proliferation effect) (U937 cells; U937): +; Effect (anti-proliferation effect) (PC3 cells; PC3): +; Effect (anti-proliferation effect) (BXPC3 cells; BXPC3): +; Effect (anti-proliferation effect) (HeLa cells): +; Effect (anti-proliferation effect) (HT29 cells; HT29): +; Effect (anti-proliferation effect) (IMR90 cells; IMR90): −; IC50 (IMR90 cells): > 5000 µM; Effect (anti-proliferation effect) (MRC-5 cells; MRC-5): −; IC50 (MRC-5 cells): > 5000 µM; IC50 (A375 cells): 163 µM; decrease in the volume of the tumour [3]: 89%; loss of body weight (Body weight of SHR rats; 600 mg/kg): 21 gram |
| CCCCCCCC/C=C\CCCCCCC(O)C(=O)O (racemic) [2OHOA, 2-hydroxyoleic acid] | significant increases in SM levels |  |  |  |  |  |  |  |  |  |  | +2% | −7% | −8% | −17% | −23% | −39% | −37% | significant reductions | significant reductions | synthesis of SM (U118 cells [1]; U118, 200 μM, 24 hours): significant increase; IC50 (U118 cells [2]; Homo sapiens): 142 µM; IC50 (U87 cells; Homo sapiens, U-87 MG): 81.6 µM; IC50 (SH-SY5Y cells; Homo sapiens): 119 µM; IC50 (A549 cells; Homo sapiens, A549, A549, sodium salt form): 94.1 ± 8.8 µM; IC50 (Jurkat cells; Homo sapiens): 62.9 µM; IC50 (U937 cells; Homo sapiens, U-937): 183 µM; IC50 (PC3 cells; Homo sapiens, PC-3): 138 µM; IC50 (BXPC3 cells; Homo sapiens, BXPC-3): 98.3 µM; IC50 (HeLa cells; Homo sapiens): 127 µM; IC50 (HT29 cells; Homo sapiens, HT-29): 225 µM; IC50 (IMR90 cells; Homo sapiens, IMR-90): > 5000 µM; IC50 (MRC-5 cells; Homo sapiens, MRC5): > 5000 µM; IC50 (A375 cells; Homo sapiens, A-375): 273 µM; decrease in the volume of the tumour [3]: 23%; loss of body weight (Body weight of SHR rats): 11 gram; loss of body weight as share of body weight (Body weight of SHR rats): ~3% |
